In ChEMBL document CHEMBL1765075, “Discovery and structure-activity relationship of 3-aminopyrid-2-ones as potent and selective interleukin-2 inducible T-cell kinase (Itk) inhibitors” (J Med Chem, 2011):
pKi: −log10 of the molar value. Values after ≈ are worked out from the molar mass of the structure shown.

Tests used:
[1] = biological target: Fibroblast growth factor receptor 4 (Homo sapiens, UniProt P22455); experiment: Inhibition of FGFR4
[2] = biological target: Tyrosine-protein kinase BTK (Homo sapiens, UniProt Q06187); experiment: Inhibition of BTK
[3] = biological target: T1, Receptor-type tyrosine-protein kinase FLT3 (Homo sapiens, UniProt P36888); experiment: Inhibition of Flt3 after 20 mins by radiometric phosphate incorporation assay
T1 sequence (P36888 whole entry): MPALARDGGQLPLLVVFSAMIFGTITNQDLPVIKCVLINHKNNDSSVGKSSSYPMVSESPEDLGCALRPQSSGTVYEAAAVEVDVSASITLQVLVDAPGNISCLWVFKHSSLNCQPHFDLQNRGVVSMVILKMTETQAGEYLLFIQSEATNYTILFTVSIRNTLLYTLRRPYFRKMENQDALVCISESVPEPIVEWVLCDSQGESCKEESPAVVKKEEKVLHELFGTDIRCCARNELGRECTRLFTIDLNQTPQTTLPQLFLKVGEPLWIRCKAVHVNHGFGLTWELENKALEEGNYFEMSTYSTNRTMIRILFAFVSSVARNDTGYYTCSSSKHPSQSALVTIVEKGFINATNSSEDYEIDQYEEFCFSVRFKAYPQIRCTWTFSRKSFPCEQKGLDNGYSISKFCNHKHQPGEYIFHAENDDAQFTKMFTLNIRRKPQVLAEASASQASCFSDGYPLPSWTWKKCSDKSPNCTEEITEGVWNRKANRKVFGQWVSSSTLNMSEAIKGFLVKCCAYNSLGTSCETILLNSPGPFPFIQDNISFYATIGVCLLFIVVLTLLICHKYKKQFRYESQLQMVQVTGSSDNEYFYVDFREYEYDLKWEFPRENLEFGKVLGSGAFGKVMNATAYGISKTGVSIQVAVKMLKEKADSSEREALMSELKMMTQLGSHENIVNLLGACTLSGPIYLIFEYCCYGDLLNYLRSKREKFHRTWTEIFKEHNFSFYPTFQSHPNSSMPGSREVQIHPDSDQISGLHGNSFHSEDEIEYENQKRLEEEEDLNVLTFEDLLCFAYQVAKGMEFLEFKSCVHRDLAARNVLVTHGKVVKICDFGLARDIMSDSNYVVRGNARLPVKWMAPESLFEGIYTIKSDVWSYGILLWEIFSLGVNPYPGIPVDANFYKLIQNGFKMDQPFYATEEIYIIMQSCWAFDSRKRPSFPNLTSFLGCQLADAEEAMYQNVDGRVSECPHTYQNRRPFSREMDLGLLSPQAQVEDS

[4] = biological target: Proto-oncogene tyrosine-protein kinase Src (Homo sapiens, UniProt P12931); experiment: Inhibition of SRC
[5] = biological target: Tyrosine-protein kinase Fer (Homo sapiens, UniProt P16591); experiment: Inhibition of FER
[6] = biological target: RAC-alpha serine/threonine-protein kinase (Homo sapiens, UniProt P31749); experiment: Inhibition of AKT1
[7] = biological target: Tyrosine-protein kinase CSK (Homo sapiens, UniProt P41240); experiment: Inhibition of CSK
[8] = biological target: Focal adhesion kinase 1 (Homo sapiens, UniProt Q05397); experiment: Inhibition of FAK
Sequence of Focal adhesion kinase 1 (Q05397 whole entry): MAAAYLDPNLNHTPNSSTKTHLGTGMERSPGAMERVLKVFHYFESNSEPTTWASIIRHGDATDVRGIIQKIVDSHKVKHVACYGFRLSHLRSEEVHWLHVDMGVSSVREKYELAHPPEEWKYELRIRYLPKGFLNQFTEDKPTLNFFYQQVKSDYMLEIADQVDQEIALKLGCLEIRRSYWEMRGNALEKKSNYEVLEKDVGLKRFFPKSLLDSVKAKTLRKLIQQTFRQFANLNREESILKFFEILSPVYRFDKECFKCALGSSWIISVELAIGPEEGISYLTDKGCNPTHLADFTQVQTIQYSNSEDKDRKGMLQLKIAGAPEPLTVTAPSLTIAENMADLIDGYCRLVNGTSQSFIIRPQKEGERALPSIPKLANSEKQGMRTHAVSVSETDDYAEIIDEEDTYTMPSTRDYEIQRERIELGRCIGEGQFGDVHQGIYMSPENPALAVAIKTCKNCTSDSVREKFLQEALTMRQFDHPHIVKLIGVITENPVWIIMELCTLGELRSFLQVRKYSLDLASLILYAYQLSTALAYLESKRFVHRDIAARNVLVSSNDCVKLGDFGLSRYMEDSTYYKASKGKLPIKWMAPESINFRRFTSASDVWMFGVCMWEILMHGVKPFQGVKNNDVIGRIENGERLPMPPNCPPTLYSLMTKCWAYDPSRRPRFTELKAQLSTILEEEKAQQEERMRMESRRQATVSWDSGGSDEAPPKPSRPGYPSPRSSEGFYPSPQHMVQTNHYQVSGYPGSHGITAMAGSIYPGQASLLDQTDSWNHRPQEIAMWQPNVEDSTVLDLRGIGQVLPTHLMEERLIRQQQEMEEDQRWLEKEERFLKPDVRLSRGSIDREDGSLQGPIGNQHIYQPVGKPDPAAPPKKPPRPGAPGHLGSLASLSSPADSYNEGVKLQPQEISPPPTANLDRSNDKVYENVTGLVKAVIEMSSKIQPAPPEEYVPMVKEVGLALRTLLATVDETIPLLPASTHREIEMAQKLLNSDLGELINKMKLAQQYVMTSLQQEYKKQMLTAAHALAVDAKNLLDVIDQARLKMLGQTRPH

[9] = biological target: Serine/threonine-protein kinase 3 (Homo sapiens, UniProt Q13188); experiment: Inhibition of MST2
[10] = biological target: Ribosomal protein S6 kinase alpha-5 (Homo sapiens, UniProt O75582); experiment: Inhibition of MSK1
[11] = biological target: Protein kinase C beta type (Homo sapiens, UniProt P05771); experiment: Inhibition of PKCbeta
[12] = Solubility of the compound in phosphate buffer at pH 7.4 by high throughput shake flask assay; format: physicochemical
[13] = biological target: Insulin receptor (Homo sapiens, UniProt P06213); experiment: Inhibition of IR
[14] = biological target: Serine/threonine-protein kinase Chk1 (Homo sapiens, UniProt O14757); experiment: Inhibition of CHK1
[15] = biological target: T2, Tyrosine-protein kinase ITK/TSK (Homo sapiens, UniProt Q08881); experiment: Inhibition of Itk after 40 mins by radiometric phosphate incorporation assay
T2 sequence (Q08881 whole entry): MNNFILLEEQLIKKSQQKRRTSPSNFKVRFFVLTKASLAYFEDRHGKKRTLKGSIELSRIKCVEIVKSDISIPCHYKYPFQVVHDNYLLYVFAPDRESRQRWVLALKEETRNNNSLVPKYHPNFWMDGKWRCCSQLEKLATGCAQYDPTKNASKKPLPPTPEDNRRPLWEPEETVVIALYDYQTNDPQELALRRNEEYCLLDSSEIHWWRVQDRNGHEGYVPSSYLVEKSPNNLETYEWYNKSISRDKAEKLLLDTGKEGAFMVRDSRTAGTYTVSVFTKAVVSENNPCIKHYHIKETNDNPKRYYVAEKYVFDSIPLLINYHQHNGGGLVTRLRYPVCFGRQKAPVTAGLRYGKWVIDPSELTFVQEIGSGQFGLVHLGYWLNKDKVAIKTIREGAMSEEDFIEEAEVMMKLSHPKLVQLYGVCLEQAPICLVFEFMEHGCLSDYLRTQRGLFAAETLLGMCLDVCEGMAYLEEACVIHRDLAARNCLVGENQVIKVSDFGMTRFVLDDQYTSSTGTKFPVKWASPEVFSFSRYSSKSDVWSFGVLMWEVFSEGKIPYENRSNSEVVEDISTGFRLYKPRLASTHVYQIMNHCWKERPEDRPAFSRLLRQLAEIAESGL

[16] = biological target: Death-associated protein kinase 3 (Homo sapiens, UniProt O43293); experiment: Inhibition of ZIPK
[17] = biological target: MAP kinase-activated protein kinase 5 (Homo sapiens, UniProt Q8IW41); experiment: Inhibition of PRAK
[18] = biological target: Tyrosine-protein kinase ABL1 (Homo sapiens, UniProt P00519); experiment: Inhibition of ABL
[19] = biological target: Mast/stem cell growth factor receptor Kit (Homo sapiens, UniProt P10721); experiment: Inhibition of KIT
[20] = biological target: Tyrosine-protein kinase JAK3 (Homo sapiens, UniProt P52333); experiment: Inhibition of JAK3
[21] = biological target: Tyrosine-protein kinase Fyn (Homo sapiens, UniProt P06241); experiment: Inhibition of FYN
Sequence of Tyrosine-protein kinase Fyn (P06241 whole entry): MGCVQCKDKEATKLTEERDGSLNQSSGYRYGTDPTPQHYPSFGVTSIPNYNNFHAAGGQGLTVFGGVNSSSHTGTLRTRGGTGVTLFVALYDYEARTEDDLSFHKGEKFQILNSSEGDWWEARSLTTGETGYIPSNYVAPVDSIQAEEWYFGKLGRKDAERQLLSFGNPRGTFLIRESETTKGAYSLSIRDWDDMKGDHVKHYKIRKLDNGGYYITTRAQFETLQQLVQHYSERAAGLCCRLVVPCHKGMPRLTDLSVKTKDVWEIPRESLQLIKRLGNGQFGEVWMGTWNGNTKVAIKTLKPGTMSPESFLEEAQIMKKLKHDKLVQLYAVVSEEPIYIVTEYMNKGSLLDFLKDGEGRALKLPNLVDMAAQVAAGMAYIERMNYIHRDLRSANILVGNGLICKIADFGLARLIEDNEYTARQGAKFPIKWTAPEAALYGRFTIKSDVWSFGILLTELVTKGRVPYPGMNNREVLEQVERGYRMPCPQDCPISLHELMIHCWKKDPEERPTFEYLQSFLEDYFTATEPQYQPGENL

[22] = biological target: Cyclin-dependent kinase 1 (Homo sapiens, UniProt P06493); experiment: Inhibition of CDK1
Sequence of Cyclin-dependent kinase 1 (P06493 whole entry): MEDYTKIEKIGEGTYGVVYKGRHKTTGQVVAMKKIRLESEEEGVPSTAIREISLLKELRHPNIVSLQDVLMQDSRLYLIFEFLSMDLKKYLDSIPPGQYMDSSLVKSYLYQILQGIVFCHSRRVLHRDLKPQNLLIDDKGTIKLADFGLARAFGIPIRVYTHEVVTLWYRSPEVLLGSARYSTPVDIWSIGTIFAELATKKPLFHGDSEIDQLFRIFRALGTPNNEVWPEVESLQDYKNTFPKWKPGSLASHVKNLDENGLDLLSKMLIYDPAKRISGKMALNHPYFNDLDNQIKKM

[23] = biological target: Ribosomal protein S6 kinase beta-1 (Homo sapiens, UniProt P23443); experiment: Inhibition of P70S6K1
Sequence of Ribosomal protein S6 kinase beta-1 (P23443 whole entry): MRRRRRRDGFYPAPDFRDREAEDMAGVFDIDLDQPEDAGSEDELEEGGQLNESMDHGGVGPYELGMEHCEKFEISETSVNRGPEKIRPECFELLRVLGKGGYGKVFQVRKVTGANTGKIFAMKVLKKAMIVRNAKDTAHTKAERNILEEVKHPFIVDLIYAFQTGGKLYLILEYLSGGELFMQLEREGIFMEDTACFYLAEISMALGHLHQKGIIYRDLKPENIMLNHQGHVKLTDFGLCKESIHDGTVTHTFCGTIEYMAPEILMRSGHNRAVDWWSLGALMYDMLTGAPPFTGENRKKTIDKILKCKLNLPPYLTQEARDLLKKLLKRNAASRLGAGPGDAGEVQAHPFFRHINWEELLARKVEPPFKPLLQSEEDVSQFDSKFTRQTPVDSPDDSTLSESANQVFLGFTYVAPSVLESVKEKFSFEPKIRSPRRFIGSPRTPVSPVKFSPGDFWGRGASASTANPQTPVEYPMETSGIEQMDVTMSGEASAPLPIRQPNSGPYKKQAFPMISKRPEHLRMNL

[24] = biological target: Tyrosine-protein kinase JAK2 (Homo sapiens, UniProt O60674); experiment: Inhibition of JAK2
[25] = Inhibition of CK1
[26] = biological target: Rho-associated protein kinase 2 (Homo sapiens, UniProt O75116); experiment: Inhibition of ROCK2
[27] = biological target: Vascular endothelial growth factor receptor 2 (Homo sapiens, UniProt P35968); experiment: Inhibition of KDR
Sequence of Vascular endothelial growth factor receptor 2 (P35968 whole entry): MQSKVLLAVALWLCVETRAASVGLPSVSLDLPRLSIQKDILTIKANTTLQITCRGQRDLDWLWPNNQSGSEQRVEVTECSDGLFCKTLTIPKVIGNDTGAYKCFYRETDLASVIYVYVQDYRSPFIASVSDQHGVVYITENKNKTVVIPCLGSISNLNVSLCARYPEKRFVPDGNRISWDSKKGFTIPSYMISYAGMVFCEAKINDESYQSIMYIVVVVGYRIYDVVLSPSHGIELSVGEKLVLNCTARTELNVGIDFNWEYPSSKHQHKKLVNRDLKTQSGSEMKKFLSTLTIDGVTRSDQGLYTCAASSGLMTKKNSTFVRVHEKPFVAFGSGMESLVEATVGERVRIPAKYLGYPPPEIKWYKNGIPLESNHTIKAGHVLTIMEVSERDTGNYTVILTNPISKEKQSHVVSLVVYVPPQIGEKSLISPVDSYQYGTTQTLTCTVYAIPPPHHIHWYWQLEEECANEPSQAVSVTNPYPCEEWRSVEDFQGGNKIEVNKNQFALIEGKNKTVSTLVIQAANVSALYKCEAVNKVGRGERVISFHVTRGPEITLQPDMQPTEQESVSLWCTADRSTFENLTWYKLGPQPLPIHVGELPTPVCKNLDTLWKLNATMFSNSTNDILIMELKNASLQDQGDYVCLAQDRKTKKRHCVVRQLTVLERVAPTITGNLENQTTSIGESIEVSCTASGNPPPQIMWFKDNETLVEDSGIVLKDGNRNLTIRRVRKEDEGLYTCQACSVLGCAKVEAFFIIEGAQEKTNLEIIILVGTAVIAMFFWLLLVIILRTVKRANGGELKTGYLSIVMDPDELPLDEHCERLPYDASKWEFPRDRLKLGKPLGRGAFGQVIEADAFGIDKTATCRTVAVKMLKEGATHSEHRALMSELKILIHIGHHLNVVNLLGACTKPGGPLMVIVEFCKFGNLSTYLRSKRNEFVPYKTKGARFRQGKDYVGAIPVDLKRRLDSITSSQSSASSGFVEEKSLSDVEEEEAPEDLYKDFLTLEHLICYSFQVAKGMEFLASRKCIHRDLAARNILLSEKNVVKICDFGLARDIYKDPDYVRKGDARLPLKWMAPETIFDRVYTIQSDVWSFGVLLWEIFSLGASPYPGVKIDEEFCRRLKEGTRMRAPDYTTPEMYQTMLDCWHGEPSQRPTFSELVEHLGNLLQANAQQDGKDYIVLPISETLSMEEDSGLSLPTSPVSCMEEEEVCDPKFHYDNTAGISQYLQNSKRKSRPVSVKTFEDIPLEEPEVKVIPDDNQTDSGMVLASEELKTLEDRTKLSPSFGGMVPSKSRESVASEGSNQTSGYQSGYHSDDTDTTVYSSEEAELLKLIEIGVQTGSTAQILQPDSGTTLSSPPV

[28] = biological target: Mitogen-activated protein kinase kinase kinase 7 (Homo sapiens, UniProt O43318); experiment: Inhibition of TAK1
Sequence of Mitogen-activated protein kinase kinase kinase 7 (O43318 whole entry): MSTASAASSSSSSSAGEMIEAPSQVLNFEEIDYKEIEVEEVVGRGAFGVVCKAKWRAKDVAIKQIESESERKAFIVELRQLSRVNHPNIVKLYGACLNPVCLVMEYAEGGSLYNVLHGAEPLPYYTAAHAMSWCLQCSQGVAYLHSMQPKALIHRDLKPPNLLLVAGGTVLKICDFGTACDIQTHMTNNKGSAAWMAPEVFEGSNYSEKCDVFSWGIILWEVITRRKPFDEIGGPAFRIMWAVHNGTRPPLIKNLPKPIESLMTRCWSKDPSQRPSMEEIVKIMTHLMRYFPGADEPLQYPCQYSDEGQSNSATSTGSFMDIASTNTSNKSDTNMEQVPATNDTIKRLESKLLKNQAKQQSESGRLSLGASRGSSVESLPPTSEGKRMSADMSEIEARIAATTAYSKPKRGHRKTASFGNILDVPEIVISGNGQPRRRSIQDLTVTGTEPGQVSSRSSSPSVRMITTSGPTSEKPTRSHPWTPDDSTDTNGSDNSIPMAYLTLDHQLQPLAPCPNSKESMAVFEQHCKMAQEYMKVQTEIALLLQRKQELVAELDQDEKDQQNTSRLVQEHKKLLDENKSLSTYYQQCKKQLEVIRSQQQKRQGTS

[29] = biological target: RAF proto-oncogene serine/threonine-protein kinase (Homo sapiens, UniProt P04049); experiment: Inhibition of C-RAF
Sequence of RAF proto-oncogene serine/threonine-protein kinase (P04049 whole entry): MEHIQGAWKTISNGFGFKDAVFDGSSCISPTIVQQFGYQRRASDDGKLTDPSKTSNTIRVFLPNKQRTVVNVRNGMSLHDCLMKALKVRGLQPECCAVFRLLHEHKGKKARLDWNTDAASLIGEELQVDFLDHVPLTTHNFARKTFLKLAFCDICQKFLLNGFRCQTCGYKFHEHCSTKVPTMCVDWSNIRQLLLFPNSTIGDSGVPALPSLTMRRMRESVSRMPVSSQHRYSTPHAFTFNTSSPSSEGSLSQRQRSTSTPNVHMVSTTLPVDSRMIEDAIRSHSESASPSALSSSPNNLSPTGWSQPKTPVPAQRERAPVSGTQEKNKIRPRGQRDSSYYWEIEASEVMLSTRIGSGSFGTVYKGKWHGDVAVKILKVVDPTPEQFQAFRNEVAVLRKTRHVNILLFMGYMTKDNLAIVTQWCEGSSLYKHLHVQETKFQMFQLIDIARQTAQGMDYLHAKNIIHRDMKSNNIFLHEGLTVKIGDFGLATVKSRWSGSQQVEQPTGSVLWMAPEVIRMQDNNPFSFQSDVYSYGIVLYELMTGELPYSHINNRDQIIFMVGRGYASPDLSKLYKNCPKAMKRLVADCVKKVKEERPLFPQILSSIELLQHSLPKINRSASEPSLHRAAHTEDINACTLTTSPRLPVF

[30] = biological target: Ceramide kinase (Homo sapiens, UniProt Q8TCT0); experiment: Inhibition of CERK

For `CNc1cncc(-c2c[nH]c(=O)c(NC(=O)c3ccc(N4CCC[C@H]4CN4CCCC4)cc3)c2)n1`, the pKi [1] was < 6.00, the pKi [2] was < 6.00 and the pKi [3] was 7.70. For the same compound, the pKi [4] was 6.92, the pKi [5] was < 6.00 and the pKi [6] was < 6.00. The pKi [7] was < 6.00, the pKi [8] was < 6.00 and the pKi [9] was < 6.00. For the same compound, the pKi [10] was < 6.00, the pKi [11] was < 6.00 and the solubility thermodynamic [12] was 150 µg/mL (≈ 317 µM). For the same compound, the pKi [13] was < 6.00, the pKi [14] was < 6.00 and the pKi [15] was 8.15. For the same compound, the pKi [16] was < 6.00, the pKi [17] was < 6.00 and the pKi [18] was < 6.00. The pKi [19] was 6.70, the pKi [20] was 6.46 and the pKi [21] was < 6.00. The pKi [22] was < 6.00, the pKi [23] was < 6.00 and the pKi [24] was 6.43. The pKi [25] was < 6.00, the pKi [26] was < 6.00 and the pKi [27] was 6.37. The pKi [28] was 6.07, the pKi [29] was < 5.70 and the pKi [30] was < 6.00.
